Measurements published in paper PMC10744269, “Frentizole, a Nontoxic Immunosuppressive Drug, and Its Analogs Display Antitumor Activity via Tubulin Inhibition” (International Journal of Molecular Sciences, 2023).

How the values were obtained:
[1] = test system: nontumorigenic cell line HEK-293 (human embryonic kidney cells); assay: MTT antiproliferative assay, HEK-293; assay type: cell-based; settings: HEK293, 72 h after drug treatment, threshold 10 μM
Description: (§1) The cell proliferation inhibitory activity of frentizole and the synthesized analogs 2–10 against representative human cancer cell lines was assayed using the MTT method (Table 1). […] For those compounds inhibiting cell proliferation by more than 40% with respect to the untreated controls at the threshold concentration, the IC50 values were calculated by measuring the proliferation inhibition in a range of concentrations from 100 to 0.001 μM and adjusting the resulting curves to sigmoidal dose–response curves. The selected cell lines were HeLa (cervix epithelioid carcinoma cells), one of the most frequent kinds of cancer, with good sensitivity against antimitotic agents, and the glioblastoma cell lines U87MG and A172. To study the selectivity of the compounds toward cancer cells versus nontumor cells, the compounds were also evaluated against the nontumorigenic cell line HEK-293 (human embryonic kidney cells) and the murine macrophage cell line J774. Sulfonamide ABT-751, as a representative of the colchicine-site ligands, and the first-line drug for the treatment of glioblastoma multiforme temozolomide (TMZ) were used as reference compounds.
(§2) The cell lines were from ATTC (Manassas, VA, USA). HeLa (human cervix epithelioid carcinoma), U87 MG (human glioblastoma), A172 (human glioblastoma), and HEK-293 (human embryonic kidney) were grown in Dulbecco’s modified Eagle’s medium (DMEM, Gibco, Waltham, MA, USA), supplemented with 10% (v/v) heat-inactivated fetal bovine serum (HIFBS, Sigma-Aldrich, St. Louis, MO, USA), 2 mM L-glutamine, 100 μg/mL streptomycin, and 100 units/mL penicillin (Gibco, Waltham, MA, USA) at 37 °C in humidified 95% air and 5% CO2. The cells were periodically tested for Mycoplasma infection using MycoAlert kit (Lonza, Norwest, Australia), and only mycoplasma-free cells were employed in the experiments.
(§3) The effect of the compounds on the proliferation of human tumor cell lines was determined as previously described using the MTT reagent 3-[4,5-dimethylthiazol-2-yl]-2,5-diphenyltetrazolium bromide, MTT Thiazolyl Blue Tetrazolium Bromide, Sigma-Aldrich, St. Louis, MO, USA) dissolved in PBS at 5 mg/mL, according to the manufacturer’s instructions. The cells were incubated in 96-well plates (100 μL/well), in complete DMEM or RPMI 1640 medium (see above), at 37 °C and 5% CO2 atmosphere for 24 h to allow for cell attachment to the plate at the following concentrations: 30,000 cells/mL (U87MG, A172, J774, and HEK-293 cells) or 15,000 cells/mL (HeLa cells). Then, every compound was added (10 μL/well) to a final concentration of 10 μM. Untreated cells were used as negative controls. The antiproliferative activity of the compounds was measured 72 h after drug exposure using the MTT assay. The IC50 value (the drug concentration required to inhibit 50% of the cell growth in respect the untreated control) was determined for those compounds showing antiproliferative effects in the initial screening at 10 μM. For this purpose, the compounds were used at different concentrations ranging from 10^−10 to […]. Measurements were performed in triplicate and each experiment was repeated three times. The IC50 values were determined using Origin software (OriginLab, Washington, DC, USA).

HeLa cells = assay: Cell cycle analysis (PI staining, flow cytometry); assay type: cell-based, human; settings: 2 μM, 24-72 h
Description: To study the effects of the compounds on the cell cycle, cells were incubated for different times with the compounds and, thereafter, their DNA was stained using propidium iodide (PI) to allow for quantification by flow cytometry. […] The brominated ethyl BZTs (5b and 5f) were faster to show the subG0/G1 decrease, at 24 h, followed by an apparent stabilization of the G0/G1 population at 48 h, which abruptly fell at the 72 h time point.
HeLa cells (8 × 10^4 cells/mL) were seeded in 6-well plates (2 mL/well) and incubated in complete DMEM medium at 37 °C and 5% CO2 atmosphere for 24 h. Then, the medium was replaced with fresh complete DMEM in the presence or absence of the selected compounds (3ea, 5b, 5f, and frentizole 6e) at 2 μM. Untreated cells were used as negative controls. Cells were harvested 24, 48, or 72 h following treatment and fixed in ice-cold ethanol/PBS (7:3) overnight. The cells were then washed twice with PBS, suspended in PBS and incubated overnight in darkness with 0.2 mg/mL RNase A (Sigma-Aldrich, St. Louis, MO, USA), 50 μg/mL propidium iodide (Sigma-Aldrich, St. Louis, MO, USA), and Triton 10× at room temperature. A BD Accuri™ C6 Plus Flow Cytometer (BD Bioscience, Madrid, Spain) was used to analyze samples, and BD Accuri™ C6 Software (version 1.0.264.21) was used for data analysis.

[2] = test system: HeLa (cervix epithelioid carcinoma cells); assay: MTT antiproliferative assay, HeLa; assay type: cell-based, human; settings: for IC50: Homo sapiens, HeLa
Description: as §1, §2, §3

[3] = test system: microtubule network of HeLa cells; assay: Immunofluorescence confocal microscopy of cellular microtubules; assay type: cell-based, human; settings: 2 μM, 24 h
Description: Therefore, we studied the effect of the compounds after 24 h of treatment on the microtubule network of HeLa cells by immunofluorescence confocal microscopy (Figure 5) through α-tubulin and nuclei labeling. […] These morphological effects are typical of tubulin inhibitors. Again, the effects are more pronounced for 5b than for 3ea, frentizole, and 5f.
HeLa cells (8 × 10^4 cells/mL) were seeded on 0.01% poly-L-lysine precoated square glass coverslips (22 mm^2), deposited on 6-well plates (1 coverslip/well), and incubated in complete DMEM medium at 37 °C and 5% CO2 atmosphere. After 24 h the culture medium was replaced by fresh complete DMEM, and the cells were incubated in the presence of 2 μM or absence of the selected compounds (3ea, 5b, 5f, and frentizole 6e) for 24 h. Untreated cells were used as negative controls. Then the medium was removed, and the coverslips were washed three times with PBS, fixed in 4% formaldehyde in PBS for 10 min, permeabilized with 0.5% Triton X-100 (Sigma-Aldrich, St. Louis, MO, USA) in PBS for 90 s at 4 °C, blocked with 10% BSA in PBS for 30 min and washed four times with PBS. Then, the coverslips were incubated for 1 h with anti-α-tubulin mouse monoclonal antibody (Sigma-Aldrich, St. Louis, MO, USA, 1:200 in PBS containing 3% BSA). After four washes with PBS, the coverslips were incubated with fluorescent secondary antibody Alexa Fluor 488 goat anti-mouse IgG (Molecular Probes, Invitrogen, Eugenen, OR, USA, 1:400 in PBS containing 1% BSA) for 1.5 h in darkness. After four washes with PBS, a droplet of ProLong™ Gold Antifade Mountant containing DAPI (ThermoFisher, Waltham, MA, USA) was added for cell nuclei staining. The samples were analyzed via confocal microscopy using a LEICA SP5 microscope DMI-6000V model coupled to a LEICA LAS AF 4.0 software computer.

[4] = test system: murine macrophage cell line J774; assay: MTT antiproliferative assay, J774; assay type: cell-based; settings: Mus musculus, 72 h after drug treatment, threshold 10 μM, read-out: IC50 J-774
Description: as §1, §3

[5] = test system: A172 (human glioblastoma); assay: MTT antiproliferative assay, A-172; assay type: cell-based; settings: 72 h after drug treatment, threshold 10 μM
Description: as §1, §2, §3

[6] = test system: U87 MG (human glioblastoma); assay: MTT antiproliferative assay, U-87 MG; assay type: cell-based; settings: 72 h after drug treatment, threshold 10 μM
Description: as §1, §2, §3

Solubility (remark) = assay type: physicochemical
[7] = test system: Survival motor neuron protein; design: method as in SuperPred [40]; settings: Table S2, CHEMBL1293232; ref SuperPred [40]; cited from earlier work
[8] = design: method as in PMID 24858403; settings: cited from earlier work
[9] = test system: Ras-related protein Rab-9A; design: method as in SuperPred [40]; settings: Table S2, CHEMBL1293294; ref SuperPred [40]; cited from earlier work
[10] = test system: U87 MG (human glioblastoma); design: method as in PMID 37376146; settings: cited from earlier work
[11] = 72 h after drug treatment, threshold 10 μM

| Structure (SMILES) | IC50 [2, 11] | IC50 [5] | IC50 [6] | solubility (in words) (Solubility (remark)) | IC50 HeLa [2, 11] | IC50 [1] | effect on the cell cycle populations (in words) (HeLa cells) | activity against HeLa cells (in words) [2] | effect on the microtubule network (in words) [3] | IC50 [4] | Min Activity (Assay type Potency) [7] | blood–brain barrier crossing [8] | effect on the cell cycle populations (in words) (HeLa cells; listed as Frentizole (6e)) | effect on the cell cycle populations (in words) (HeLa cells; listed as frentizole) | Min Activity (Assay type Potency) [9] | in vitro IC50 against U87MG [10] |
| --- | --- | --- | --- | --- | --- | --- | --- | --- | --- | --- | --- | --- | --- | --- | --- | --- |
| CCNC(=O)Nc1nc2c(Br)c(C)c(C)cc2s1 [Compound 5d, 1-(4-Bromo-5,6-dimethylbenzo[d]thiazol-2-yl)-3-ethylurea] | 1.24 µM | > 10 µM | > 10 µM | very limited solubility |  | > 10 µM |  | significant activity |  | > 10 µM |  |  |  |  |  |  |
| COc1ccc2nc(NC(=O)Nc3ccccc3)sc2c1 [Compound 6e, 1-(6-Methoxybenzo[d]thiazol-2-yl)-3-phenylurea, reference compound] | 1 µM | > 10 µM | 7.33 µM |  | low micromolar range | 6.86 µM |  | significant activity | severe microtubule network disruption | > 10 µM | 891.3 nm | able to cross the blood–brain barrier | progressive accumulation of cells in the G2/M population | no increase in the subG0/G1 population was observed | 707.9 nm |  |
| Cn1nnc2c(C(N)=O)ncn2c1=O [temozolomide] |  |  |  |  |  |  |  |  |  |  |  |  |  |  |  | millimolar range |

Second part, led by results:

| IC50 [2, 11] | IC50 [5] | IC50 [6] | solubility (in words) (Solubility (remark)) | IC50 HeLa [2, 11] | Structure (SMILES) | IC50 [1] | effect on the cell cycle populations (in words) (HeLa cells) | activity against HeLa cells (in words) [2] | effect on the microtubule network (in words) [3] | IC50 [4] | Min Activity (Assay type Potency) [7] | blood–brain barrier crossing [8] | effect on the cell cycle populations (in words) (HeLa cells; listed as Frentizole (6e)) | effect on the cell cycle populations (in words) (HeLa cells; listed as frentizole) | Min Activity (Assay type Potency) [9] | in vitro IC50 against U87MG [10] |
| --- | --- | --- | --- | --- | --- | --- | --- | --- | --- | --- | --- | --- | --- | --- | --- | --- |
| 0.74 µM | > 10 µM | > 10 µM |  |  | COc1ccc2nc(N(C)C(=O)c3ccccc3)sc2c1 [Compound 3ea, N-(6-methoxybenzo[d]thiazol-2-yl)-N-methylbenzamide] | > 10 µM | weakest effect on the cell populations | significant activity | severe microtubule network disruption | > 10 µM |  |  |  |  |  |  |
| 0.49 µM | > 10 µM | > 10 µM |  |  | CCNC(=O)Nc1nc2c(Br)cc(C)cc2s1 [Compound 5b, 1-(4-Bromo-6-methylbenzo[d]thiazol-2-yl)-3-ethylurea] | > 10 µM | arrest at G2/M in the 24 to 48 h period | significant activity | severe microtubule network disruption | > 10 µM |  |  |  |  |  |  |
| 0.7 µM | > 10 µM | > 10 µM |  |  | CCNC(=O)Nc1nc2c(Br)cc(OC)cc2s1 [Compound 5f, 1-(4-Bromo-6-methoxybenzo[d]thiazol-2-yl)-3-ethylurea] | > 10 µM | increase in the subG0/G1 population progressively occurs at the 48 h to 72 h timepoints | significant activity | severe microtubule network disruption | > 10 µM |  |  |  |  |  |  |
